Reference: paper PMC3802547 (Molecular bioSystems, 2011)

Molecular target: LasB (elastase) (Pseudomonas aeruginosa, UniProt P14756)
Assay: BODIPY-FL casein fluorescence protease assay with purified LasB
Type: biochemical

Sequence of LasB (elastase) (P14756 198-498): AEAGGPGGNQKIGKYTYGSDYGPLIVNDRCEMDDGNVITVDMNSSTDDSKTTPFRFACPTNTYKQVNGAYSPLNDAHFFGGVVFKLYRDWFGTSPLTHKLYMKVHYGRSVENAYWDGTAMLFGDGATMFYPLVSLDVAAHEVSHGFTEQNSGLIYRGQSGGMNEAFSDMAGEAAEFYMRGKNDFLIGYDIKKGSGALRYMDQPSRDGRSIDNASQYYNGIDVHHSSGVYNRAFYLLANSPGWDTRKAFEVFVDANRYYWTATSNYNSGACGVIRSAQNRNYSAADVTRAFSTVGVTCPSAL

CCCCCCC[C@@H]1C[C@H]1CCC(=O)O [compound 4, lyngbyoic acid]
Ki: 5.4 µM
